This note sets out measurements from ChEMBL document CHEMBL4049437, “Benzoisoquinolinediones as Potent and Selective Inhibitors of BRPF2 and TAF1/TAF1L Bromodomains” (J Med Chem, 2017).

Data set [1] addresses T1, Peregrin (Homo sapiens, UniProt P55201).
T1 sequence (P55201 whole entry): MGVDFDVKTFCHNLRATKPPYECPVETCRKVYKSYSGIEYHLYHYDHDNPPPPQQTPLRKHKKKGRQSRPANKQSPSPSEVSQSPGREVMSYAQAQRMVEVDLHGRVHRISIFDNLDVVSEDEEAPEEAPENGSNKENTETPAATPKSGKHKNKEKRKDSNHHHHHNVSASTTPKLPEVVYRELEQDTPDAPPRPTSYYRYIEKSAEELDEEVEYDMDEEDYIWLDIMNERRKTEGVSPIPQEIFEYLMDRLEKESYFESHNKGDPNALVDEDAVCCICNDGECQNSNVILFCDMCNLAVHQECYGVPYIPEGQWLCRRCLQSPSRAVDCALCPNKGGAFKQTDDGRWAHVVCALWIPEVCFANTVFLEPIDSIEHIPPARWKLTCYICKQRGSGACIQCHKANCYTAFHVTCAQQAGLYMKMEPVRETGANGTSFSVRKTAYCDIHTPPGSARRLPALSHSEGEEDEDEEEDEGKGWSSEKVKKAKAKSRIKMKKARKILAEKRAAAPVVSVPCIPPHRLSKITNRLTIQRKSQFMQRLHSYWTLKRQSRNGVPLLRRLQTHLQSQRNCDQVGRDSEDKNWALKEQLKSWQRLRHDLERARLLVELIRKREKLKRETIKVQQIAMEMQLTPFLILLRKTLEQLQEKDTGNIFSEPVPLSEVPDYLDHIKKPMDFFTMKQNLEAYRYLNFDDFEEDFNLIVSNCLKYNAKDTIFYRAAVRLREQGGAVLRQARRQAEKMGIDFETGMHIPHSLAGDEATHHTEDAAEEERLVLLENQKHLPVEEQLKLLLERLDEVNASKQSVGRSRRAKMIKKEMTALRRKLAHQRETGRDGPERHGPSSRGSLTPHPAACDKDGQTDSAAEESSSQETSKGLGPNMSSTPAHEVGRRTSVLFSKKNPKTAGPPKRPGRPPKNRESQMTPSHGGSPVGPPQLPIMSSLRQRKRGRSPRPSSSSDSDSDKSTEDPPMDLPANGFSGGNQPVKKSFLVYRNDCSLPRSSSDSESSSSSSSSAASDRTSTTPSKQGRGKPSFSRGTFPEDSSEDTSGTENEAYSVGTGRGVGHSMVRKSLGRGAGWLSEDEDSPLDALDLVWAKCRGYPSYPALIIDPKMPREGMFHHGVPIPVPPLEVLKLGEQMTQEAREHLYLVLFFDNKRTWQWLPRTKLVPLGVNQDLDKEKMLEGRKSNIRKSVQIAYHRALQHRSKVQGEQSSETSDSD
Briefly: Inhibition of His-tagged BRPF1 (626 to 740 residues) (unknown origin) preincubated for 15 mins followed by addition of C-terminal biotinylated synthetic K5,12 diacetylated histone H4 (1 to 20 residues) peptide as substrate measured after 1 hr by TR-FRET assay.

The target of data set [2] is T2, Bromodomain-containing protein 1 (Homo sapiens, UniProt O95696).
T2 sequence (O95696 whole entry): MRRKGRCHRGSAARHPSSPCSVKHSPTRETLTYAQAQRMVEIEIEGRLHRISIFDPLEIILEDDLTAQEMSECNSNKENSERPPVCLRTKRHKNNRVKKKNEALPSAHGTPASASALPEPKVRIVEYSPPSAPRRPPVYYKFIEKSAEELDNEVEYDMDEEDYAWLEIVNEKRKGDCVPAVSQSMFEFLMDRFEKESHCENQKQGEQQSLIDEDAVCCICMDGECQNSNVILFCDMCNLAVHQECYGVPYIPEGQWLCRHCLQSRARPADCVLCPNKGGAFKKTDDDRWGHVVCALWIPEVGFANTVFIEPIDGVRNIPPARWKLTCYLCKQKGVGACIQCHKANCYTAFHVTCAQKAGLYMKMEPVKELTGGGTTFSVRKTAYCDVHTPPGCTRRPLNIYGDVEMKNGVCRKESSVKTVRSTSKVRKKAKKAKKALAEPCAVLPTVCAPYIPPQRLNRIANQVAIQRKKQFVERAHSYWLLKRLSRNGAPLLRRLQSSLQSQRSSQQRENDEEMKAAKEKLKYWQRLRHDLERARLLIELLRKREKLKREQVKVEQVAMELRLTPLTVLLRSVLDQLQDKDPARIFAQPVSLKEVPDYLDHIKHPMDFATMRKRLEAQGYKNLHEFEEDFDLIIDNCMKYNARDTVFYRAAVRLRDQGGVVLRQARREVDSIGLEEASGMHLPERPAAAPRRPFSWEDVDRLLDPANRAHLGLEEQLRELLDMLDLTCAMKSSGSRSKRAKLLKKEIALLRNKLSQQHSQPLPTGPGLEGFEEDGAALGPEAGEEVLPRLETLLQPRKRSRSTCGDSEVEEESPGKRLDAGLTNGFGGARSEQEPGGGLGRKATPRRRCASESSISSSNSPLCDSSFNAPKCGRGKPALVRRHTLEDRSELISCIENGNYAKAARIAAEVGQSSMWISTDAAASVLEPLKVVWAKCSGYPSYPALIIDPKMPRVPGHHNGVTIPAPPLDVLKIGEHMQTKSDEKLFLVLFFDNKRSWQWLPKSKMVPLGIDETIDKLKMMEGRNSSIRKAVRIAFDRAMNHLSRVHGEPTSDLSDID
In words: Inhibition of human BRPF2 (563 to 688 residues) expressed in Escherichia coli BL21 (DE3)-R3-pRARE2 preincubated for 15 mins followed by addition of C-terminal biotinylated synthetic K5,12 diacetylated histone H4 (1 to 20 residues) peptide as substrate measured after 1 hr by TR-FRET assay.

Data set [3] deals with Transcription initiation factor TFIID subunit 1 (Homo sapiens, UniProt P21675). In words: Inhibition of human GST-tagged TAF1 BD2 (1519 to 1651 residues) expressed in Escherichia coli BL21 (DE3)-R3-pRARE2 preincubated for 15 mins followed by addition of C-terminal biotinylated synthetic K5,8,12,16 tetra-acetylated histone H4 (1 to 20 residues) peptide as substrate measured after 1 hr by TR-FRET assay.

Data set [4] has as its target T3, Bromodomain-containing protein 4 (Homo sapiens, UniProt O60885).
Data set [5] has as its target T3, Bromodomain-containing protein 4. In words: Inhibition of BRD4 BD2 (unknown origin) preincubated for 15 mins followed by addition of C-terminal biotinylated synthetic K5,8,12,16 tetra-acetylated histone H4 (1 to 20 residues) peptide as substrate measured after 1 hr by TR-FRET assay.
A short description of data set [6]: Aqueous solubility of the compound in DMSO at pH 6.5 after 24 hrs by HPLC-MS/MS analysis. Format: physicochemical. Conditions: pH 6.5, 24 h.
Data set [7] deals with T2, Bromodomain-containing protein 1.

Values after ≈ are worked out from the molar mass of the structure shown.

Transcription initiation factor TFIID subunit 1, sequence (P21675 whole entry, the tested form may be a part): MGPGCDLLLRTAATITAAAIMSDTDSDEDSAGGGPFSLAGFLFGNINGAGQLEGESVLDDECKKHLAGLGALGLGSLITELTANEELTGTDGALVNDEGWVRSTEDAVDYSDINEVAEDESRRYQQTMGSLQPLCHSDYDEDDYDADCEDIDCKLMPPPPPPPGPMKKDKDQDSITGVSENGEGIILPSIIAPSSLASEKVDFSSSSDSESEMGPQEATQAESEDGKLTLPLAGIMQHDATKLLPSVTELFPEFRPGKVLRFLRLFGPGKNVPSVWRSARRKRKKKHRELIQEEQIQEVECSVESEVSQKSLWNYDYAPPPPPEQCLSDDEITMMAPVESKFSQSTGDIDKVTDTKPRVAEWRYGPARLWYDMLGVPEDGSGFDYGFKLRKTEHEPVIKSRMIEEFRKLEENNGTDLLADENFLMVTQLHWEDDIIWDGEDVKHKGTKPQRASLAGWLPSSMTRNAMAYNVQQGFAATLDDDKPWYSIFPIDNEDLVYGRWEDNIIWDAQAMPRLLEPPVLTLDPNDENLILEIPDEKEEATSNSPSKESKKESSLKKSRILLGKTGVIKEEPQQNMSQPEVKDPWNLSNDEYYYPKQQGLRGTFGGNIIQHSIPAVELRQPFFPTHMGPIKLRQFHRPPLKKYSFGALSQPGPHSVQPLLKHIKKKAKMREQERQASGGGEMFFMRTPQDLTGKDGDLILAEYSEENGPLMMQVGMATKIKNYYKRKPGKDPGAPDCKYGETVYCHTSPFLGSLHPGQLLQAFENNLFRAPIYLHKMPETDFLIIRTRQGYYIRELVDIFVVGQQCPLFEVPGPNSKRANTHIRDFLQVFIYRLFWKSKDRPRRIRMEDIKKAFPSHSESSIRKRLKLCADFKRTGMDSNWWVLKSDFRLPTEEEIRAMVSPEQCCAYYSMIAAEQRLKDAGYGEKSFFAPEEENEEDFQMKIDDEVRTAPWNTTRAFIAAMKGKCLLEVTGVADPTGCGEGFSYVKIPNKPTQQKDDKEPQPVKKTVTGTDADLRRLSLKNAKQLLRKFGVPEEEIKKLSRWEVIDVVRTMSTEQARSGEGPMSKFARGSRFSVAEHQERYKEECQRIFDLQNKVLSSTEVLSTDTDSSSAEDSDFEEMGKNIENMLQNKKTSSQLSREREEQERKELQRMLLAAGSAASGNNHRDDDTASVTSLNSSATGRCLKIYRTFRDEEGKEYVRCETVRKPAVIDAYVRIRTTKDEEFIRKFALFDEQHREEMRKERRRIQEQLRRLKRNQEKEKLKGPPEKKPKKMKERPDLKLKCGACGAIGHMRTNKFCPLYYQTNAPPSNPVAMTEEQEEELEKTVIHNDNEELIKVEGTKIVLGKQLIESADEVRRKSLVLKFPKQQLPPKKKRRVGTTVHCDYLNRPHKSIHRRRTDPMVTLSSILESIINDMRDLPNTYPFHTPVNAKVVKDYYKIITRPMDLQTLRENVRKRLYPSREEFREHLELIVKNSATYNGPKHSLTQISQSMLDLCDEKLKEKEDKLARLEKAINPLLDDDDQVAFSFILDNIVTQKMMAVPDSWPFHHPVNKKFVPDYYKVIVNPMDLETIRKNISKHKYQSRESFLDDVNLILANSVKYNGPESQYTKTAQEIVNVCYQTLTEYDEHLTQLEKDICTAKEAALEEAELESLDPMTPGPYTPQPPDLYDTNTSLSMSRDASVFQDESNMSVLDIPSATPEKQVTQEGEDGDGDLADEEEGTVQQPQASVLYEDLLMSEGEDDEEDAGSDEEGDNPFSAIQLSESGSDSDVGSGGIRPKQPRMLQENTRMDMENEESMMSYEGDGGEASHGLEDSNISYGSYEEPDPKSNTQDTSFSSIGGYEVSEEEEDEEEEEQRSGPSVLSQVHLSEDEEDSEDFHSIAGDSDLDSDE

For the molecule `Cc1cc2c(cc1N1C(=O)c3cccc4c(N(C)CCN5CCCC5)ccc(c34)C1=O)n(C)c(=O)n2C`, the IC50 is 1310 nM in data set [1]; 84 nM in data set [2]; 6 nM in data set [3]; greater than 11500 nM in data set [4]; greater than 15000 nM in data set [5]; 941 nM in data set [7]. In data set [6], the solubility was 334 µg/mL (≈ 671 µM).
Turning to `Cc1cc2c(cc1N1C(=O)c3cccc4cc(Br)cc(c34)C1=O)n(C)c(=O)n2C`, the IC50 is 1900 nM in data set [1]; 124 nM in data set [2]; 17 nM in data set [3]; greater than 17000 nM in data set [4]; greater than 20000 nM in data set [5].
For `Cc1cc2c(cc1N1C(=O)c3cccc4c(N5CCN(CCN(C)C)CC5)ccc(c34)C1=O)n(C)c(=O)n2C`, the IC50 in data set [1] was 1270 nM; in data set [2], 74 nM; in data set [3] it was 25 nM; in data set [4], greater than 13000 nM; in data set [5], greater than 15000 nM; in data set [7], 420 nM. Also, the solubility in data set [6] came to 159 µg/mL (≈ 302 µM).
Turning to `Cc1cc2c(cc1N1C(=O)c3cccc4c(N5CCN(CC6CC6)CC5)ccc(c34)C1=O)n(C)c(=O)n2C`, the IC50 in data set [1] is 1220 nM; in data set [2] it was 80 nM; in data set [3], 14 nM; in data set [4] it was greater than 9600 nM; in data set [7], 863 nM. In data set [6], this molecule returned a solubility of 139 µg/mL (≈ 273 µM).
For `Cc1cc2c(cc1N1C(=O)c3cccc4cc(O)cc(c34)C1=O)n(C)c(=O)n2C`, the IC50 is 3690 nM in data set [1]; 102 nM in data set [2]; 13 nM in data set [3]; greater than 14200 nM in data set [4]; greater than 20000 nM in data set [5].
Take `COC1CCN(c2ccc3c4c(cccc24)C(=O)N(c2cc4c(cc2C)n(C)c(=O)n4C)C3=O)CC1`: the IC50 in data set [1] is 4820 nM; in data set [2], 53 nM; in data set [3], 15 nM; in data set [4] it was greater than 14000 nM; in data set [5], greater than 15000 nM; in data set [7] it was 915 nM. In data set [6], this molecule showed a solubility of 0.1 µg/mL (≈ 0.206 µM).
Take `Cc1cc2c(cc1N1C(=O)c3cccc4c(N5CCCC5)ccc(c34)C1=O)n(C)c(=O)n2C`: the IC50 was 4540 nM in data set [1]; 126 nM in data set [2]; 15500 nM in data set [4]; greater than 15000 nM in data set [5]; greater than 10000 nM in data set [7]. In data set [6], the solubility worked out at 0.1 µg/mL (≈ 0.227 µM).
In the case of `Cn1c(=O)n(C)c2cc(N3C(=O)c4cccc5cccc(c45)C3=O)c(Br)cc21`, the IC50 is 855 nM in data set [1]; 153 nM in data set [2]; 87 nM in data set [3]; greater than 20000 nM in data set [4]; greater than 20000 nM in data set [5].
With `Cc1cc2c(cc1N1C(=O)c3cccc4cc(N)cc(c34)C1=O)n(C)c(=O)n2C`, the IC50 in data set [1] is 5510 nM; in data set [2], 63 nM; in data set [3] it was 33 nM; in data set [4] it was greater than 9950 nM; in data set [5], greater than 20000 nM.
For `Cc1cc2c(cc1N1C(=O)c3cccc4c(CCCCO)ccc(c34)C1=O)n(C)c(=O)n2C`, the IC50 in data set [1] was 2300 nM; in data set [2] it was 70 nM; in data set [3], 7 nM; in data set [4], greater than 11900 nM; in data set [5], greater than 15000 nM. Also, the solubility in data set [6] is 10 µg/mL (≈ 22.5 µM).
As for `Cc1cc2c(cc1N1C(=O)c3cccc4c(N5CCOCC5)ccc(c34)C1=O)n(C)c(=O)n2C`, the IC50 in data set [1] is 3310 nM; in data set [2], 61 nM; in data set [3] it was 90 nM; in data set [4] it was greater than 16600 nM; in data set [5] it was greater than 15000 nM; in data set [7], 613 nM. The same molecule registered a solubility in data set [6] of 0.2 µg/mL (≈ 0.438 µM).
With `Cc1cc2c(cc1N1C(=O)c3cccc4cc([N+](=O)[O-])cc(c34)C1=O)n(C)c(=O)n2C`, the IC50 in data set [1] was 185 nM; in data set [2], 82 nM; in data set [3], 58 nM; in data set [4], greater than 20000 nM; in data set [5], greater than 20000 nM.
As to `CN1CCN(c2cc3c(cc2N2C(=O)c4cccc5cccc(c45)C2=O)n(C)c(=O)n3C)CC1`, the IC50 in data set [1] is 578 nM; in data set [2] it was 366 nM; in data set [3], 1500 nM; in data set [4] it was greater than 20000 nM; in data set [5], greater than 20000 nM.
For the molecule `CN(C)c1cc2c(cc1N1C(=O)c3cccc4cccc(c34)C1=O)n(C)c(=O)n2C`, the IC50 is 630 nM in data set [1]; 100 nM in data set [2]; 55 nM in data set [3]; greater than 20000 nM in data set [4]; greater than 20000 nM in data set [5].
As for `Cc1cc2c(cc1N1C(=O)c3cccc4c(N5CCN(C)CC5)ccc(c34)C1=O)n(C)c(=O)n2C`, the concentration for half-maximal inhibition (IC50) in data set [1] was 1010 nM; in data set [2], 93 nM; in data set [3], 4 nM; in data set [4], greater than 14500 nM; in data set [5] it was greater than 15000 nM; in data set [7], 1240 nM. Further, the solubility in data set [6] is 287 µg/mL (≈ 611 µM).
With `Cc1cc2c(cc1N1C(=O)c3cccc4c(N5CCCCC5)ccc(c34)C1=O)n(C)c(=O)n2C`, the IC50 in data set [1] is 13300 nM; in data set [2], 95 nM; in data set [3], 7 nM; in data set [7], greater than 10000 nM. Also, the solubility result in data set [6] is recorded as “Insoluble”.
Turning to `Cc1cc2c(cc1N1C(=O)c3cccc4cc(C#N)cc(c34)C1=O)n(C)c(=O)n2C`, the IC50 in data set [1] is 2230 nM; in data set [2], 248 nM; in data set [3], 22 nM; in data set [4] it was greater than 20000 nM; in data set [5] it was greater than 20000 nM.
As for `Cc1cc2c(cc1N1C(=O)c3cccc4c(Br)ccc(c34)C1=O)n(C)c(=O)n2C`, the half-inhibitory concentration (IC50) was 591 nM in data set [1]; 51 nM in data set [2]; 4 nM in data set [3]; greater than 9500 nM in data set [4]; greater than 20000 nM in data set [5].
